Results from patent US20210038587A1, “METHODS AND COMPOSITIONS FOR TREATING NON-ERK MAPK PATHWAY INHIBITOR-RESISTANT CANCERS” (BIOMED VALLEY DISCOVERIES, INC., priority 2013, published 2021).

What was measured:
Assay in all cases: Reverse Phase Protein Analysis (RPPA)
Details in all cases: % change from DMSO (matched cell line)
Colo205 = format: cell-based, human
Procedure: Control wells were treated with DMSO at 0.1% (v/v) for 6 hours prior to cell lysate generation. Samples were then analyzed using reverse-phase protein microarray technology (Theranostics Health).
Cell lines with common alterations in BRAF and RAS were assayed: BRAF^V600E mutant lines A375, Colo205, and HT29; KRAS^G12C-mutant cell line MIAPACa-2; KRAS^G13D-mutant cell line HCT116; and AN3Ca with atypical HRAS^F82L mutation.

HCT116 = format: cell-based, human
In short: (§1)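 Cells were treated 6 h before lysis, with 0.1% (v/v) DMSO as control. Lysates were analysed by reverse-phase protein microarray. Protein changes are expressed as percentage change from DMSO-treated parental cells.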

HT29 = format: cell-based
In short: as §1

AN3Ca = format: cell-based
In short: as §1

For `O=C(Nc1ccc2[nH]nc(-c3ccncc3)c2c1)[C@@H]1CCN(CC(=O)N2CCN(c3ccc(-c4ncccn4)cc3)CC2)C1` [SCH772984], the “Avg (4ebp1 T70)” value (Colo205) was −27.51%, the “Avg (Akt S473)” value (Colo205) was −1.74% and the “Avg (Akt)” value (Colo205) was −10.31%. The “Avg (Bad S136)” value (Colo205) was 1.88%, the “Avg (Bad S155)” value (Colo205) was −10.96% and the “Avg (Bak)” value (Colo205) was 4.59%. For the same compound, the “Avg (Bax)” value (Colo205) was −6.44%, the “Avg (Bcl 2)” value (Colo205) was −14.56% and the “Avg (Bcl2 S70)” value (Colo205) was −18.52%. The “Avg (Bcl 2 T56)” value (Colo205) was −6.73%, the “Avg (Bim)” value (Colo205) was 29.22% and the “Avg (CREB S133)” value (Colo205) was −14.56%. For the same compound, the “Avg (Caspase 3 CL D175)” value (Colo205) was 14.08%, the “Avg (Caspase 7 Cl D198)” value (Colo205) was 12.36% and the “Avg (Chk1)” value (Colo205) was 7.49%. The “Avg (Chk1 S345)” value (Colo205) was 1%, the “Avg (Cyclin D1)” value (Colo205) was −36.7% and the “Avg (ERK 1 2)” value (Colo205) was −31.87%. The “Avg (ERK 1 2 T202 Y204)” value (Colo205) was −91.43%, the “Avg (MAK1 S360)” value (Colo205) was 7.54% and the “Avg (Mcl1)” value (Colo205) was −0.14%. The “Avg (Raptor S792)” value (Colo205) was −4.17%, the “Avg (Raptor)” value (Colo205) was −2.2% and the “Avg (Rictor)” value (Colo205) was −19.07%. For the same compound, the “Avg (Stat1)” value (Colo205) was −4.31%, the “Avg (Stat3)” value (Colo205) was −6.1% and the “Avg (bad S112)” value (Colo205) was −29.4%. The “Avg (c Fos)” value (Colo205) was −15.17%, the “Avg (c Myc)” value (Colo205) was −0.64% and the “Avg (mTOR S2448)” value (Colo205) was −9.44%. For the same compound, the “Avg (mTOR S2481)” value (Colo205) was −6.68%, the “Avg (mTOR)” value (Colo205) was −5.62% and the “Avg (p70 S6 Kinase)” value (Colo205) was −2.85%. The “Avg (p90 RSK S380)” value (Colo205) was −62.31%, the “Avg(S6 Ribo Prot S235 236)” value (Colo205) was −94.67% and the “Avg(S6 Ribo Prot S240 244)” value (Colo205) was −95.09%. For the same compound, the “Avg(Tuberin TSC2 Y1571)” value (Colo205) was −1.38%, the “Avg(p70 S6 Kinase S371 S394)” value (Colo205) was −14.59% and the “Avg(p70 S6 Kinase T389 T412)” value (Colo205) was −30.4%. For the same compound, the “Avg (4ebp1 T70)” value (HCT116) was 5.6%, the “Avg (Akt S473)” value (HCT116) was −8.76% and the “Avg (Akt)” value (HCT116) was −9.86%. For the same compound, the “Avg (Bad S136)” value (HCT116) was −10.55%, the “Avg (Bad S155)” value (HCT116) was −22.96% and the “Avg (Bak)” value (HCT116) was −4.66%. The “Avg (Bax)” value (HCT116) was −13.86%, the “Avg (Bcl 2)” value (HCT116) was −10.58% and the “Avg (Bcl2 S70)” value (HCT116) was −18.34%. For the same compound, the “Avg (Bcl 2 T56)” value (HCT116) was −15.89%, the “Avg (Bim)” value (HCT116) was 1.95% and the “Avg (CREB S133)” value (HCT116) was −24.18%. For the same compound, the “Avg (Caspase 3 CL D175)” value (HCT116) was −4.63%, the “Avg (Caspase 7 Cl D198)” value (HCT116) was −16.35% and the “Avg (Chk1)” value (HCT116) was −5.58%. For the same compound, the “Avg (Chk1 S345)” value (HCT116) was −18.51%, the “Avg (Cyclin D1)” value (HCT116) was −73.21% and the “Avg (ERK 1 2)” value (HCT116) was −10.22%. The “Avg (ERK 1 2 T202 Y204)” value (HCT116) was −75.21%, the “Avg (MAK1 S360)” value (HCT116) was −15.32% and the “Avg (Mcl1)” value (HCT116) was −6.55%. The “Avg (Raptor S792)” value (HCT116) was −18.18%, the “Avg (Raptor)” value (HCT116) was −9.66% and the “Avg (Rictor)” value (HCT116) was −18.5%. The “Avg (Stat1)” value (HCT116) was −10.74%, the “Avg (Stat3)” value (HCT116) was −7.67% and the “Avg (bad S112)” value (HCT116) was −31.29%. The “Avg (c Fos)” value (HCT116) was −15.27%, the “Avg (c Myc)” value (HCT116) was −12.86% and the “Avg (mTOR S2448)” value (HCT116) was −16.05%. The “Avg (mTOR S2481)” value (HCT116) was −22.53%, the “Avg (mTOR)” value (HCT116) was −12.56% and the “Avg (p70 S6 Kinase)” value (HCT116) was −14.12%. The “Avg (p90 RSK S380)” value (HCT116) was −33.7%, the “Avg(S6 Ribo Prot S235 236)” value (HCT116) was −93.86% and the “Avg(S6 Ribo Prot S240 244)” value (HCT116) was −91.07%. The “Avg(Tuberin TSC2 Y1571)” value (HCT116) was −16.17%, the “Avg(p70 S6 Kinase S371 S394)” value (HCT116) was −12.3% and the “Avg(p70 S6 Kinase T389 T412)” value (HCT116) was −24.63%. For the same compound, the “Avg (4ebp1 T70)” value (HT29) was −40.58%, the “Avg (Akt S473)” value (HT29) was −22.14% and the “Avg (Akt)” value (HT29) was −16.93%. For the same compound, the “Avg (Bad S136)” value (HT29) was 9.67%, the “Avg (Bad S155)” value (HT29) was −7.98% and the “Avg (Bak)” value (HT29) was 2.78%. For the same compound, the “Avg (Bax)” value (HT29) was −20.59%, the “Avg (Bcl 2)” value (HT29) was −10.01% and the “Avg (Bcl2 S70)” value (HT29) was −11.45%. For the same compound, the “Avg (Bcl 2 T56)” value (HT29) was −17.9%, the “Avg (Bim)” value (HT29) was 0.69% and the “Avg (CREB S133)” value (HT29) was 9.87%. The “Avg (Caspase 3 CL D175)” value (HT29) was −7.9%, the “Avg (Caspase 7 Cl D198)” value (HT29) was 7.02% and the “Avg (Chk1)” value (HT29) was 14.64%. For the same compound, the “Avg (Chk1 S345)” value (HT29) was 19.05%, the “Avg (Cyclin D1)” value (HT29) was −36.66% and the “Avg (ERK 1 2)” value (HT29) was −37%. The “Avg (ERK 1 2 T202 Y204)” value (HT29) was −74.84%, the “Avg (MAK1 S360)” value (HT29) was 1.25% and the “Avg (Mcl1)” value (HT29) was 14.05%. The “Avg (Raptor S792)” value (HT29) was −6.38%, the “Avg (Raptor)” value (HT29) was −12.18% and the “Avg (Rictor)” value (HT29) was −13.03%. The “Avg (Stat1)” value (HT29) was 5.79%, the “Avg (Stat3)” value (HT29) was −2.15% and the “Avg (bad S112)” value (HT29) was −33.9%. For the same compound, the “Avg (c Fos)” value (HT29) was −9.26%, the “Avg (c Myc)” value (HT29) was 13.55% and the “Avg (mTOR S2448)” value (HT29) was −22.65%. The “Avg (mTOR S2481)” value (HT29) was 13.93%, the “Avg (mTOR)” value (HT29) was 9.31% and the “Avg (p70 S6 Kinase)” value (HT29) was −2.36%. The “Avg (p90 RSK S380)” value (HT29) was −53.88%, the “Avg(S6 Ribo Prot S235 236)” value (HT29) was −44.9% and the “Avg(S6 Ribo Prot S240 244)” value (HT29) was −25.73%. For the same compound, the “Avg(Tuberin TSC2 Y1571)” value (HT29) was 13.25%, the “Avg(p70 S6 Kinase S371 S394)” value (HT29) was −20.52% and the “Avg(p70 S6 Kinase T389 T412)” value (HT29) was −9.55%. The “Avg (4ebp1 T70)” value (AN3Ca) was 61.57%, the “Avg (Akt S473)” value (AN3Ca) was 66.17% and the “Avg (Akt)” value (AN3Ca) was −16.35%. For the same compound, the “Avg (Bad S136)” value (AN3Ca) was 5.26%, the “Avg (Bad S155)” value (AN3Ca) was 12.92% and the “Avg (Bak)” value (AN3Ca) was 9.73%. The “Avg (Bax)” value (AN3Ca) was 0.15%, the “Avg (Bcl 2)” value (AN3Ca) was −5.14% and the “Avg (Bcl2 S70)” value (AN3Ca) was −12.42%. The “Avg (Bcl 2 T56)” value (AN3Ca) was −10.73%, the “Avg (Bim)” value (AN3Ca) was −14.09% and the “Avg (CREB S133)” value (AN3Ca) was 3.64%. For the same compound, the “Avg (Caspase 3 CL D175)” value (AN3Ca) was 1.25%, the “Avg (Caspase 7 Cl D198)” value (AN3Ca) was −24.17% and the “Avg (Chk1)” value (AN3Ca) was 1.35%. For the same compound, the “Avg (Chk1 S345)” value (AN3Ca) was 14.56%, the “Avg (Cyclin D1)” value (AN3Ca) was −11.33% and the “Avg (ERK 1 2)” value (AN3Ca) was −9.27%. For the same compound, the “Avg (ERK 1 2 T202 Y204)” value (AN3Ca) was 19.75%, the “Avg (MAK1 S360)” value (AN3Ca) was −5.02% and the “Avg (Mcl1)” value (AN3Ca) was −7.15%. The “Avg (Raptor S792)” value (AN3Ca) was −4.03%, the “Avg (Raptor)” value (AN3Ca) was −11.09% and the “Avg (Rictor)” value (AN3Ca) was −10.89%. For the same compound, the “Avg (Stat1)” value (AN3Ca) was 5.52%, the “Avg (Stat3)” value (AN3Ca) was −6.01% and the “Avg (bad S112)” value (AN3Ca) was −39.14%. For the same compound, the “Avg (c Fos)” value (AN3Ca) was −9.18%, the “Avg (c Myc)” value (AN3Ca) was 0.88% and the “Avg (mTOR S2448)” value (AN3Ca) was −4.84%. The “Avg (mTOR S2481)” value (AN3Ca) was 11.24%, the “Avg (mTOR)” value (AN3Ca) was −5.33% and the “Avg (p70 S6 Kinase)” value (AN3Ca) was −7.71%. The “Avg (p90 RSK S380)” value (AN3Ca) was −40.26%, the “Avg(S6 Ribo Prot S235 236)” value (AN3Ca) was −61.99% and the “Avg(S6 Ribo Prot S240 244)” value (AN3Ca) was −35.88%. The “Avg(Tuberin TSC2 Y1571)” value (AN3Ca) was 13.44%, the “Avg(p70 S6 Kinase S371 S394)” value (AN3Ca) was 24.56% and the “Avg(p70 S6 Kinase T389 T412)” value (AN3Ca) was −16.63%.
